Data taken from PubChem BioAssay (NCI).
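In this assay, cells in 96-well plates receive the compound at five concentrations for 48 hours. Endpoints are linearly interpolated between the surrounding concentrations. TGI denotes the concentration required for complete inhibition of growth.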

Key:
Experiment in all cases: NCI-60 cell line screen, 48 h
EKVX NSCLC = tested on: EKVX NSCLC
HCT-15 colon = tested on: HCT-15 colon
HOP-62 NSCLC = tested on: HOP-62 NSCLC
MDA-N = tested on: MDA-N
NCI-H23 lung = tested on: NCI-H23 lung
RXF 393 renal = tested on: RXF 393 renal
SF-539 CNS = tested on: SF-539 CNS
SK-MEL-28 melanoma = tested on: SK-MEL-28 melanoma
SK-MEL-5 melanoma = tested on: SK-MEL-5 melanoma
UO-31 renal = tested on: UO-31 renal

| Structure (SMILES) | TGI (EKVX NSCLC) [µM] | TGI (HCT-15 colon) [µM] | TGI (HOP-62 NSCLC) [µM] | TGI (MDA-N) [µM] | TGI (NCI-H23 lung) [µM] | TGI (RXF 393 renal) [µM] | TGI (SF-539 CNS) [µM] | TGI (SK-MEL-28 melanoma) [µM] | TGI (SK-MEL-5 melanoma) [µM] | TGI (UO-31 renal) [µM] |
| --- | --- | --- | --- | --- | --- | --- | --- | --- | --- | --- |
| N#Cc1ccc(Oc2nc3ccc(C(F)(F)F)cc3nc2-c2ccccc2)cc1 | 32.5 | 28.1 | 36 | 57.8 | 32 | 77.8 | 89.3 | 30.2 | 46.5 | 46.1 |
| Clc1c(C(Cl)(Cl)Cl)nsc1N1CCCCC1 | 79.7 | 79.9 | 73.8 | > 100 | 34.7 | 32.3 | 68.5 | > 100 | 29.6 | 44.3 |
| CC(=O)Oc1ccc(/C=C/C(=O)O[C@H]2CCCC[C@@H]2OC(=O)/C=C/c2ccc(OC(C)=O)c(OC(C)=O)c2)cc1OC(C)=O | 44 | 31.2 | 32.2 | 27.5 | 27 | 27.7 | > 100 | 33.1 | 15.1 | 20.6 |
| Cn1c(=O)c2c(nc(Nc3ccc(Cl)cc3)n3c(=O)n(-c4ccccc4)c(=O)n23)n(C)c1=O | > 100 | > 100 | > 100 | > 100 | > 100 | > 100 | > 100 | > 100 | > 100 | > 100 |
| COc1cc2c(cc1OC)-c1cc3cc(OC)c(OC)cc3c(=O)n1CC2 | > 100 | > 100 | > 72.8 | > 100 | > 100 | > 69.8 | 50.9 | > 100 | 25.9 | 13.2 |
| C=C(C(=O)OC)c1cc2ccccc2n1S(=O)(=O)c1ccccc1 | 37.7 | 5.37 | 11.1 | 14 | 11.5 | 2.54 | 3.66 | 5.79 | 5.36 | 9.41 |
| N#Cc1nc(CCC(c2nc(C#N)c(N)o2)N2C(=O)c3ccccc3C2=O)oc1N (stereo not given) | > 100 | > 100 | > 100 | > 100 | > 100 | > 100 | > 100 | > 100 | > 100 | > 100 |
| Nc1ccc(Oc2ccc(C34CC5CC6C3CC3CC4C(C5)C6(c4ccc(Oc5ccc(N)c(O)c5)cc4)C3)cc2)cc1O | 22.2 | 25 | 18.3 | 14.8 | 31.2 | 27 | 0.652 | 23.6 | 9.24 | 11.2 |
| CC1(C)CCC(=O)NC1CC(=O)CC1NC(=O)CCC1(C)C (stereo not given) | > 100 | > 100 | > 100 | > 100 | > 100 | > 100 | > 100 | > 100 | > 100 | > 100 |
| C=CCN(c1cc(OC)c2[nH]cc(C)c2c1[N+](=O)[O-])S(C)(=O)=O | > 100 | > 100 | > 100 | > 100 | > 100 | > 100 | > 100 | > 100 | > 100 | > 100 |
| COc1ccc(-c2cc(-c3cc(F)c(Cl)cc3Cl)on2)cc1OC | > 100 | > 100 | > 100 | 41 | > 100 | 46.6 | 27 | > 100 | 43.3 | > 100 |
| O=C1C(NCCN2CCOCC2)=C(Cl)C(=O)c2ncccc21 | 2.79 | 1.52 | 3.63 | 0.346 | 2.73 | 1.4 | 2.53 | 2.99 | 1.1 | 2.33 |
| COc1ccc(Oc2nc(C#CC(C)(C)O)nc(Oc3ccc(OC)cc3)n2)cc1 | 30.7 | 2.95 | 62.1 | 21.6 | 21.8 | 2.85 | 22.5 | 18.9 | 27.8 | 2.88 |
| C#CCn1c(=O)c(Cl)cn(/C(=C/C(=O)OCC)C(=O)OCC)c1=O | 34.3 | 25.2 | 37.8 | 29.9 | 42.6 | 4.18 | 12.7 | 38.9 | 30.6 | 10.6 |
| CC(=O)N1c2ccccc2C(C)C1c1[nH]c2ccccc2c1C (stereo not given) | > 100 | > 100 | 36.6 | 50.6 | > 100 | 28.4 | 27.2 | 49.3 | 28.3 | 47.6 |
| CC(C)(C)[C@H]1CCC2(OCCO2)[C@](O)(CCCO)C1 | > 100 | > 100 | > 100 | > 100 | > 100 | > 100 | > 100 | > 100 | > 100 | > 100 |
| O=C(N/N=C\c1ccccc1)Nc1cccc2ccccc12 | > 100 | > 100 | 37.2 | > 100 | > 100 | > 100 | > 100 | 51.5 | 24.4 | > 100 |
| COC(=O)c1cc(C(=CCC[C@H]2CC[C@@]3(C)C(CCC4C3CC[C@@]3(C)C4CC[C@@H]3C(C)CCCC(C)C)C2)c2cc(Cl)c(OC(=O)c3ccccc3)c(C(=O)OC)c2)cc(Cl)c1OC(=O)c1ccccc1 (stereo not given in full) | > 10 | > 10 | > 10 | > 10 | > 10 | > 10 | > 10 | > 10 | > 10 | > 10 |
